“And” between values parts separate entries of the source, which are not always exact repeats. Identical values can stand only once.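 Following 48 hours of exposure in 96-well plates, responses at five concentrations were used to interpolate endpoints linearly. GI50: concentration for 50% inhibition of growth.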 The source made the active and inactive calls. Rule as the data show it: active = GI50 up to about 1.1 µM and inactive = higher.
Tests used:
Assay in all cases: NCI anticancer screen, dose series, 48 h
[1] = test system: SNB-19
[2] = test system: KM12
[3] = test system: RXF 393
[4] = test system: SW-620
[5] = test system: HOP-62
[6] = test system: 786-0
[7] = test system: MDA-N
[8] = test system: MCF7
[9] = test system: BT-549
[10] = test system: NCI/ADR-RES
[11] = test system: PC-3
[12] = test system: SNB-75
[13] = test system: COLO 205
[14] = test system: U-251
[15] = test system: OVCAR-4
[16] = test system: SK-OV-3
[17] = test system: UACC-257
[18] = test system: LOX IMVI
[19] = test system: Malme-3M
[20] = test system: HOP-92

Structure (SMILES) | GI50 [1] | GI50 [2] | GI50 [3] | GI50 [4] | GI50 [5] | GI50 [6] | GI50 [7] | GI50 [8] | GI50 [9] | GI50 [10] | GI50 [11] | GI50 [12] | GI50 [13] | GI50 [14] | GI50 [15] | GI50 [16] | GI50 [17] | GI50 [18] | GI50 [19] | GI50 [20]
Cc1ccc(S(=O)(=O)N/N=C2\C(=O)Nc3cc(O)c(C(=O)O)cc32)cc1 | > 100 µM (inactive) | > 100 µM (inactive) | > 100 µM (inactive) | > 100 µM (inactive) | > 100 µM (inactive) | > 100 µM (inactive) | > 100 µM (inactive) | > 100 µM (inactive) | > 100 µM (inactive) | > 100 µM (inactive) | > 100 µM (inactive) | > 100 µM (inactive) | > 100 µM (inactive) | > 100 µM (inactive) | > 100 µM (inactive) | > 100 µM (inactive) | > 100 µM (inactive) | > 100 µM (inactive) | > 100 µM (inactive) | 
COc1cc(C2c3cc4c(cc3OC(Nc3ccccc3)C2C)OCO4)cc(OC)c1OC (centres undefined) | 1.19 µM (inactive) | 0.48 µM (active) | 0.565 µM (active) | 0.473 µM (active) | 0.366 µM (active) | 0.774 µM (active) | 0.161 µM (active) | 0.536 µM (active) | 4.36 µM (inactive) | 0.564 µM (active) | 0.468 µM (active) | 3.08 µM (inactive) | 0.415 µM (active) | 0.392 µM (active) | 24.7 µM (inactive) | 1.08 µM (active) | 2.82 µM (inactive) | 0.593 µM (active) | 0.166 µM (active) | 
C=C(C)c1cc(C(C)(C)C)cc(C(=C)C)c1S(C)(=O)=O | > 100 µM (inactive) | > 100 µM (inactive) |  | > 100 µM (inactive) | > 100 µM (inactive) | > 100 µM (inactive) | > 100 µM (inactive) | > 100 µM (inactive) | > 100 µM (inactive) | > 100 µM (inactive) | > 100 µM (inactive) | > 100 µM (inactive) | 0.596 µM (active) | > 100 µM (inactive) | > 100 µM (inactive) | > 100 µM (inactive) |  | > 100 µM (inactive) | > 100 µM (inactive) | 
C/C=C/c1c(O)c(=O)c2c(OC)cc(OC)c3c4c(OC)cc(OC)c5c(=O)c(O)c(/C=C/C)c(c1c23)c54 | 1.95 µM (inactive) | 10.9 µM (inactive) |  | 6.55 µM (inactive) | 16.3 µM (inactive) | 14.9 µM (inactive) | 6.87 µM (inactive) | 14.5 µM (inactive) | 3.1 µM (inactive) | 14.5 µM (inactive) | 6.37 µM (inactive) | 12.2 µM (inactive) | 3.7 µM (inactive) | 7.23 µM (inactive) | 13 µM (inactive) | 39.9 µM (inactive) | 16.5 µM (inactive) | 8.55 µM (inactive) | 6.25 µM (inactive) | 14.4 µM (inactive)
O=C1c2cc(O)c(O)cc2O[C@H](c2ccc(O)c(O)c2)[C@H]1O | > 100 µM (inactive) | > 100 µM (inactive) |  | > 100 µM (inactive) | 80.7 µM (inactive) | > 100 µM (inactive) | > 100 µM (inactive) | > 100 µM (inactive) | > 100 µM (inactive) | > 100 µM (inactive) | > 100 µM (inactive) | > 100 µM (inactive) | > 100 µM (inactive) | > 100 µM (inactive) |  | > 100 µM (inactive) | 98.9 µM (inactive) | > 100 µM (inactive) |  | > 100 µM (inactive)
Cc1c2c(n3c(nc4ccccc43)c1C#N)SCC2 | > 10 µM (inactive) | > 10 µM (inactive) |  | > 10 µM (inactive) | > 10 µM (inactive) | 8.71 µM (inactive) | > 10 µM (inactive) | > 10 µM (inactive) | > 10 µM (inactive) | > 10 µM (inactive) | > 10 µM (inactive) | > 10 µM (inactive) |  | > 10 µM (inactive) | > 10 µM (inactive) | > 10 µM (inactive) | > 10 µM (inactive) | > 10 µM (inactive) | > 10 µM (inactive) | > 10 µM (inactive)
CC(C)(C)c1cc(C(=O)/C=C/C=C/c2ccccc2)cc(C(C)(C)C)c1O | 22.3 µM (inactive) | > 28.2 µM (inactive) | 2.94 µM (inactive) | 11.5 µM (inactive) | 41.2 µM (inactive) | 17.1 µM (inactive) |  | 8.3 µM (inactive) | 18.5 µM (inactive) | 8.73 µM (inactive) | 14.7 µM (inactive) | 14.7 µM (inactive) | 16.6 µM (inactive) | 14.2 µM (inactive) | > 51.5 µM (inactive) | 31.8 µM (inactive) | 6.53 µM (inactive) | 19.8 µM (inactive) | 47.9 µM (inactive) | 42.2 µM (inactive)
Nc1ccn(C2CC(O)C(COP(=O)(S)OC3CC(n4ccc(N)nc4=O)OC3CO)O2)c(=O)n1 (centres undefined) | > 100 µM (inactive) | > 100 µM (inactive) |  | > 100 µM (inactive) | > 100 µM (inactive) | > 100 µM (inactive) | 4.93 µM (inactive) | > 100 µM (inactive) | > 100 µM (inactive) | > 100 µM (inactive) | > 100 µM (inactive) | 36.5 µM (inactive) | 13.8 µM (inactive) | > 100 µM (inactive) | > 100 µM (inactive) |  | > 100 µM (inactive) | > 100 µM (inactive) |  | > 100 µM (inactive)
COc1ccccc1/N=N/c1c(O)ccc2ccccc12 | 27.6 µM (inactive) and 26.9 µM (inactive) | 51.6 µM (inactive) and > 45.5 µM (inactive) |  | 56.8 µM (inactive) and 66.7 µM (inactive) | 15.8 µM (inactive) and 14.5 µM (inactive) | 13.8 µM (inactive) and 19.3 µM (inactive) | 45.7 µM (inactive) and > 80.4 µM (inactive) | 52.8 µM (inactive) | 84.3 µM (inactive) | 42.1 µM (inactive) and 35 µM (inactive) | 35.6 µM (inactive) and 38.1 µM (inactive) | 18.7 µM (inactive) and 19.6 µM (inactive) | 56.8 µM (inactive) and 64.7 µM (inactive) | 14.2 µM (inactive) and 18.9 µM (inactive) |  | 13.6 µM (inactive) and 18.3 µM (inactive) |  |  |  | 22.8 µM (inactive) and 14.6 µM (inactive)
O=C(O)CCC(NC(=O)c1ccc(Nc2nc3ccc(C(F)(F)F)cc3nc2C(=O)O)cc1)C(=O)O (centres undefined) | > 100 µM (inactive) | > 100 µM (inactive) | > 100 µM (inactive) | > 100 µM (inactive) | > 100 µM (inactive) | > 100 µM (inactive) | > 100 µM (inactive) | > 100 µM (inactive) | > 100 µM (inactive) | > 100 µM (inactive) | > 100 µM (inactive) | > 100 µM (inactive) | > 100 µM (inactive) | > 100 µM (inactive) |  |  | > 100 µM (inactive) | > 100 µM (inactive) |  | > 100 µM (inactive)
COc1nc2c(c(=O)[nH]1)N=C(c1ccc(Cl)cc1)CC(c1ccccc1)N2 (centres undefined) | 35.6 µM (inactive) | 37.2 µM (inactive) | 23.9 µM (inactive) | 44.6 µM (inactive) | 53.6 µM (inactive) | 37.6 µM (inactive) | 31 µM (inactive) | 39 µM (inactive) | 31.2 µM (inactive) | 23.8 µM (inactive) | 43.5 µM (inactive) | 20.8 µM (inactive) | 38.8 µM (inactive) | 35.6 µM (inactive) | 22.7 µM (inactive) |  | 36.8 µM (inactive) | 22.5 µM (inactive) |  | 24.1 µM (inactive)
COc1cccc(/C=N/n2c(Cc3ccccc3)n[nH]c2=O)c1 | > 100 µM (inactive) | > 76.2 µM (inactive) | 11.2 µM (inactive) | > 100 µM (inactive) | 42.9 µM (inactive) | 50.1 µM (inactive) | > 100 µM (inactive) | > 100 µM (inactive) | > 100 µM (inactive) | > 31.9 µM (inactive) | > 100 µM (inactive) | 29.4 µM (inactive) | > 100 µM (inactive) | > 100 µM (inactive) | > 100 µM (inactive) | > 100 µM (inactive) | > 100 µM (inactive) | 48.9 µM (inactive) | > 67.6 µM (inactive) | 
O=c1[nH]nc(-c2ccccc2)n1/N=C/c1cccs1 | > 100 µM (inactive) | > 100 µM (inactive) | 37.3 µM (inactive) | 82 µM (inactive) | > 100 µM (inactive) | 91.4 µM (inactive) | 74.8 µM (inactive) | 46.6 µM (inactive) | 27.5 µM (inactive) | 32.7 µM (inactive) | 66.1 µM (inactive) | 49.7 µM (inactive) | 19.5 µM (inactive) | > 100 µM (inactive) | 21.7 µM (inactive) | > 100 µM (inactive) | 56.8 µM (inactive) | 43.2 µM (inactive) | 62.5 µM (inactive) | 
C=C1C[C@]23CC[C@@H]4C(CO)(CO)CC(=O)C[C@]4(C)[C@@H]2CC[C@H]1C3 | 21.5 µM (inactive) |  |  | > 100 µM (inactive) | > 100 µM (inactive) | > 100 µM (inactive) | > 100 µM (inactive) | > 100 µM (inactive) | > 100 µM (inactive) | > 100 µM (inactive) | 40.5 µM (inactive) | > 100 µM (inactive) | > 100 µM (inactive) | > 100 µM (inactive) | > 100 µM (inactive) | > 100 µM (inactive) | > 100 µM (inactive) | > 100 µM (inactive) | > 100 µM (inactive) | > 100 µM (inactive)
C=CCOc1ccc(N)c([N+](=O)[O-])c1 | > 100 µM (inactive) | > 100 µM (inactive) | > 100 µM (inactive) | > 100 µM (inactive) | > 100 µM (inactive) | > 100 µM (inactive) | > 100 µM (inactive) | > 100 µM (inactive) | > 100 µM (inactive) | > 100 µM (inactive) | > 100 µM (inactive) | 89.3 µM (inactive) | > 100 µM (inactive) | > 100 µM (inactive) |  | > 100 µM (inactive) | > 100 µM (inactive) | > 100 µM (inactive) | > 100 µM (inactive) | 
